According to ChEMBL document CHEMBL1201862, “PubChem BioAssay data set” (2004):
Active and inactive are the calls of the source.

Key:
Type in all cases: functional
[1] = target: Eukaryotic translation initiation factor 4H (Homo sapiens, UniProt Q15056); test: eIF4H inhibition in translation initiation, SAR follow-up (AID 435011)
[2] = target: Polyadenylate-binding protein 1 (Homo sapiens, UniProt P11940); test: PABP inhibition in translation initiation, SAR follow-up (AID 435018)
[3] = target: DNA dC->dU-editing enzyme APOBEC-3A (Homo sapiens, UniProt P31941); test: APOBEC3A DNA deaminase inhibitors, dose response, biochemical (AID 504722)
[4] = target: DNA dC->dU-editing enzyme APOBEC-3G (Homo sapiens, UniProt Q9HC16); test: Dose Response confirmation of small molecule APOBEC3G DNA Deaminase Inhibitors via a fluorescence-based single-stranded DNA deaminase assay. [Related pubchem assays (depositor defined):AID493012, AID493028]
[5] = target: Intestinal-type alkaline phosphatase (Homo sapiens, UniProt P09923); test: Dose Response confirmation of uHTS hits from a small molecule inhibitors of human intestinal alkaline phosphatase via a luminescent assay. [Related pubchem assays (depositor defined):AID2544, AID2574]
[6] = target: T1, Corticotropin-releasing factor receptor 2/Corticotropin-releasing factor-binding protein (Homo sapiens, UniProt P24387+Q13324); test: activators of CRF receptor 2 with binding protein – uHTS hits, confirmation (AID 602473); conditions: read-out: EC50_Mean
T1 sequence (Q13324 whole entry): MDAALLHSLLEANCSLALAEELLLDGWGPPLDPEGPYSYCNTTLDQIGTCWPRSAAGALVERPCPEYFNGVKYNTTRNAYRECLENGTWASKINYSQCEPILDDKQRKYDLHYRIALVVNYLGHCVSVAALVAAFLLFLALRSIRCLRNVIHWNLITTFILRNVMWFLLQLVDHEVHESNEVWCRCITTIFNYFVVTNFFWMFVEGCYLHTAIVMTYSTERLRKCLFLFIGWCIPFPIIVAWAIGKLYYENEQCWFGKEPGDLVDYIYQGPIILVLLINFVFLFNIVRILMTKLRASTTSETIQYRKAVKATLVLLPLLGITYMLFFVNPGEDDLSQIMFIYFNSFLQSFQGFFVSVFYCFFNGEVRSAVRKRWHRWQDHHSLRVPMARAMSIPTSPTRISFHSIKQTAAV
T1 sequence (P24387 whole entry): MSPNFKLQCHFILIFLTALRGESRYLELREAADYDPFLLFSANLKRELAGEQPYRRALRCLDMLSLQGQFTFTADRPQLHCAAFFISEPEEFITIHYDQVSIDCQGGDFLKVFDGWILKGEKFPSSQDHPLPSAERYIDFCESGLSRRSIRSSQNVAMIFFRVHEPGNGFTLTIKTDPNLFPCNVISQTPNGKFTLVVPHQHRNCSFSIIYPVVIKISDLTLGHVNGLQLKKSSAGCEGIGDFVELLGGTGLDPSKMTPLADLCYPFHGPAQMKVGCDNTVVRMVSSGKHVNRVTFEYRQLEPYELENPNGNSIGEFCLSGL

[7] = target: T2, Sentrin-specific protease 1 (Homo sapiens, UniProt Q9P0U3); test: potency of human SENP1 inhibitors, dose response, biochemical, kinetic FRET (AID 651697); conditions: read-out: IC50_Mean
T2 sequence (Q9P0U3 whole entry): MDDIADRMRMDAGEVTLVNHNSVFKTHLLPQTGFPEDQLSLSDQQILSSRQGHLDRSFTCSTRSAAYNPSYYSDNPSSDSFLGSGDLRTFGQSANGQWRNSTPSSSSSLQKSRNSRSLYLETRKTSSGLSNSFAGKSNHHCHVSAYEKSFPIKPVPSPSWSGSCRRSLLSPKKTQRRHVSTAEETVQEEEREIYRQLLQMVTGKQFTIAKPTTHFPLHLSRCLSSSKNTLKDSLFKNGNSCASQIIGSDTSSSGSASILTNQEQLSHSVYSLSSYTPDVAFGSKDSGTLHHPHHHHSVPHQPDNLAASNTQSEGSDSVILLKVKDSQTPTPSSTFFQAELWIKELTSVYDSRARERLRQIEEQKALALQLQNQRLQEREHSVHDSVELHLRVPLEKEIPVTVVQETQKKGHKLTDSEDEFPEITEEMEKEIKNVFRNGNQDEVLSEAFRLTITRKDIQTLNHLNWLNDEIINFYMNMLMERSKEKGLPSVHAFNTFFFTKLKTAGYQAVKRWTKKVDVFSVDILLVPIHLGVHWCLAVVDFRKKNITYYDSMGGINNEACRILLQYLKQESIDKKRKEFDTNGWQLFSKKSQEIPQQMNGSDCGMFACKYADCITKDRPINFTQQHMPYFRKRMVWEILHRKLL

[8] = target: T2, Sentrin-specific protease 1; test: Dose response confirmation of small molecule inhibitors of the catalytic domain of the SUMO protease, SENP1 in a FRET assay.; conditions: read-out: IC50_Mean

Sequence of Polyadenylate-binding protein 1 (P11940 whole entry): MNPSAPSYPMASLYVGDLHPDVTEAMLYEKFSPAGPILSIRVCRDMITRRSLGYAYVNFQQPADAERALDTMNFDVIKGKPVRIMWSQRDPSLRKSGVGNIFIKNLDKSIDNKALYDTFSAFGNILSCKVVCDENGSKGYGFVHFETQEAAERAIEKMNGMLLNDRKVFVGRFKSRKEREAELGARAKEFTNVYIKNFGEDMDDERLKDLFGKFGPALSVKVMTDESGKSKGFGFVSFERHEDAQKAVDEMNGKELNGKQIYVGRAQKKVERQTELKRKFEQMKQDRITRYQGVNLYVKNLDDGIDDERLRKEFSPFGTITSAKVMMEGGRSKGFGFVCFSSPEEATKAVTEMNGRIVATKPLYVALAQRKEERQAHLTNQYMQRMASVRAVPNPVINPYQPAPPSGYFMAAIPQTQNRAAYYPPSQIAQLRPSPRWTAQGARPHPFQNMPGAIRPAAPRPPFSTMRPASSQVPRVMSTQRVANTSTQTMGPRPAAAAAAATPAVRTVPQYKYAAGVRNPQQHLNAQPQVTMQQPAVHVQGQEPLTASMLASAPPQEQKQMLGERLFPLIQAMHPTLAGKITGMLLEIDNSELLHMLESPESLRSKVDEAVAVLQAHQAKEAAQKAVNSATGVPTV
Sequence of Intestinal-type alkaline phosphatase (P09923 whole entry): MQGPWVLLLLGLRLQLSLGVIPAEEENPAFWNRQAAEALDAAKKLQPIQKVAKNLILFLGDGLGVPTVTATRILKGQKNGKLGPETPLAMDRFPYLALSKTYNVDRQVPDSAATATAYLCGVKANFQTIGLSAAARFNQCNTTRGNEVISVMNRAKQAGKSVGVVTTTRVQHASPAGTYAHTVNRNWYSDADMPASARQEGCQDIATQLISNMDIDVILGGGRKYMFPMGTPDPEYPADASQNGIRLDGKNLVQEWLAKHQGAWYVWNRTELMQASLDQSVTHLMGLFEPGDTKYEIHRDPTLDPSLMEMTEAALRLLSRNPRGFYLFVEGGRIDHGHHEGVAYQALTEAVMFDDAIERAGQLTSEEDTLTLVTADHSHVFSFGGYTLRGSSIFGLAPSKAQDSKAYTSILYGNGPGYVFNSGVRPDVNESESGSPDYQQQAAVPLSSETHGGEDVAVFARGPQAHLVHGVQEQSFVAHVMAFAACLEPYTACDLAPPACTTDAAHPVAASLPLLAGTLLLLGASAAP
Sequence of DNA dC->dU-editing enzyme APOBEC-3G (Q9HC16 whole entry): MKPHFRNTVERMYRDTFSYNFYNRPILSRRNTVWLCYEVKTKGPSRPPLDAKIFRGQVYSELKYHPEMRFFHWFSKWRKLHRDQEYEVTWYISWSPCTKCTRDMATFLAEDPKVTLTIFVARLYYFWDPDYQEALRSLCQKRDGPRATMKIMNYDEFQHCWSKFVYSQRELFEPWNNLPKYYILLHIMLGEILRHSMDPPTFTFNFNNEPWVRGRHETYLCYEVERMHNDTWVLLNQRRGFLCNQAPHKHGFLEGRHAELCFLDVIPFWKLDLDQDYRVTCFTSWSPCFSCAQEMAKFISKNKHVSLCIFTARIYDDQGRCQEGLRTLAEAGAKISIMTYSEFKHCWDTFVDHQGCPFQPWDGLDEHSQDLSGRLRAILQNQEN
Sequence of DNA dC->dU-editing enzyme APOBEC-3A (P31941 whole entry): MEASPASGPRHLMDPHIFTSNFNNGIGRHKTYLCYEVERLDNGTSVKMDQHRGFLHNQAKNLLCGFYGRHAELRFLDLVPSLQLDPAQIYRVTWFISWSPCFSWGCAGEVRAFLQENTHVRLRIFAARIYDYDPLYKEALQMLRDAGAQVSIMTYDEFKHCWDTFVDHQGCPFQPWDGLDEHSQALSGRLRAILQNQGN

## COc1cc([N+](=O)[O-])ccc1NC(=O)COC(=O)c1ccc2c(c1)NC(=O)CS2
[1]
  IC50: 5.18 µM (active)
[2]
  IC50: > 100 µM (inactive)

## Sc1nnc(COc2ccccc2)n1/N=C/c1ccncc1
[3]
  IC50: > 100 µM (inactive)
[4]
  IC50: 3.12 µM (active)

## Cc1cccc(NC(=O)CSc2ccc(-c3ccco3)nn2)c1
[1]
  IC50: > 100 µM (inactive)
[2]
  IC50: > 100 µM (inactive)

## Cc1ccc2c(c1)nnc1nnc(SCC(=O)O)n12
[5]
  IC50: > 100 µM (inactive)
[6]
  EC50: > 53 µM (inactive)
[7]
  IC50: 9.05 µM (active)
[8]
  IC50: 10.9 µM (active)
